In US11654138B2, “Therapeutic agents for treating and preventing autoimmune diseases and cancer and a screening method” (KING FAISAL UNIVERSITY, priority 2019, dated 2023):

Tests used:
[1] = molecular target: T1, Arid5a binding to OX40 ADE-like stem loop (Mus musculus, UniProt Q3U108); assay: RNA-Arid5a binding assay; details: Flag-Arid5a-enriched HEK293T lysate, immunoblot, FIG. 4
T1 construct: expressed in transfected cells; host or cells: HEK293T (cell lysate)
T1 sequence (Q3U108 1-590): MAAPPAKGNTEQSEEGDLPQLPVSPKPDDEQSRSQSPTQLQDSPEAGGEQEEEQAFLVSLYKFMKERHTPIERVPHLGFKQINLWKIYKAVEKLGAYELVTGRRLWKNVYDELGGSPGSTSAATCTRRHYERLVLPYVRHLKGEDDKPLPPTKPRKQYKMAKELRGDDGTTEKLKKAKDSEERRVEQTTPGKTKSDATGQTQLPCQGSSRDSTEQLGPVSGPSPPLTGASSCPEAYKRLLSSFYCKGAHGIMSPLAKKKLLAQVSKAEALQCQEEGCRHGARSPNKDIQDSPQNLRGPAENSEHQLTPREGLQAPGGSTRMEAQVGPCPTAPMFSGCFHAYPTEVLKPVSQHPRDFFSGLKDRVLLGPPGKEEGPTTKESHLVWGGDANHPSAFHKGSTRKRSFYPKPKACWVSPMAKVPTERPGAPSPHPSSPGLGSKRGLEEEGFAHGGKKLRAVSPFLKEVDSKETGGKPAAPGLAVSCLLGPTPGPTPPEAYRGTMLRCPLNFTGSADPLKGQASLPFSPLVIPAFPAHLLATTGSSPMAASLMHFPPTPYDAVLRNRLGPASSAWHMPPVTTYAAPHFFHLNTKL
Experimental: An RNA-protein binding assay was performed to confirm that POE inhibits the physical binding of Arid5a to the (ADE)-like stem loop in the OX40 3′UTR. Briefly, a 3′-biotinylated OX40 ADE-like stem loop (RNA; 5′-[…]-3′) (SEQ ID NO: 2) was conjugated to streptavidin beads. The OX40 ADE-like stem loop/streptavidin bead conjugate was then mixed with Flag-Arid5a-enriched HEK293T cell lysate, washed, and proteins bound to RNA were eluted for immunoblot. Anti-Flag antibodies were used to detect Flag-Arid5a in the eluate by SDS-PAGE analysis.

[2] = tested on: CIA; assay: Collagen-induced arthritis (CIA) model; type: in vivo, C57BL mice
[3] = tested on: peritoneal macrophages; assay: Cytokine secretion by LPS-stimulated peritoneal macrophages; type: cell-based, mice; details: 40 μM, LPS 0.5 μg/mL 24 h, compared to LPS alone
Experimental: (§1) The peritoneal macrophages were stimulated in vitro with 0.5 μg/mL lipopolysaccharides (LPS) (Sigma-Aldrich) for 24 h. The CD4^+ CD62L^+ T cells were isolated and purified from spleen using the MACS isolation kit (Miltenyi). The T cells were cultured in the presence of anti-CD3/CD28 dynabeads (Invitrogen), recombinant mouse IL-6 (30 ng/mL; R&D Systems), recombinant transforming growth factor-β (TGF-β) (4 ng/mL; R&D Systems), anti-interferon-γ (IFN-γ) and anti-IL-4 (10 μg/mL; Biolegend) for 72 h to generate Th17 cells.
The mRNAs and cytokines were quantified as follows. A first strand of cDNA was synthesized from total RNA by using the TaqMan reverse transcription kit. […] The relative expression of mRNAs was calculated by ΔΔCt method. For cytokines quantification in serum and cell culture supernatants, ELISA kits of IL-17a, IL-6, TNF-α (Invitrogen) were used following the manufacturer's instructions.
The anti-inflammatory activity of the Arid5a inhibitor POE was tested in vitro by measuring secretion of pro-inflammatory cytokines by macrophages and differentiated Th17 cells. […] The percentage of CD4^+OX40^+ T cells in the polarized Th17 cells was determined using flow cytometry; the results are shown in FIG. 3D. […]

[4] = tested on: IMQ-induced psoriasis; assay: IMQ-induced psoriasis model; type: in vivo, male BALB/c mice
Experimental: Experimental psoriasis was induced following a modified method described previously (Sun et al. 2013). To induce disease in male BALB/c mice (6-8 weeks; n=6), imiquimod (IMG; Sichuan Med-Shine Pharmaceutical) at 5% was applied topically at 20 mg/cm^2 on the inside of the right ear for 8 consecutive days. An evaluation system for assessment of erythema and thickness of the ear was developed. Erythema was assessed using a table with red […] (0-4) and ear thickness (0-4) measured using a digital caliber on days 2, 4, 6, and 8 after first IMQ application. The sum of the two parameters scores (ranging from 0-8) was used to indicate the overall clinical score. Treatment ointment was prepared by mixing 1 mg of DMSO-dissolved POE or its representative analogs including POE A2 or POE A3 with 20 gm of Vaseline Petroleum Jelly Original (vehicle, Unilever Inc.); the mixture was then incubated at room temperature overnight. From day 0 to day 8 the mice were treated topically with the treatment ointment (40 mg/cm^2) or Vaseline (IMQ/control). The mRNAs encoding Il6 and Il17a were isolated from whole biopsies of the ear (day 8) and reverse transcribed to make cDNA. The cDNA was then amplified by real-time PCR using TaqMan Gene Expression Assays (Mm00446190_ml, Mm00439618_ml, respectively; Applied Biosystems). The relative expression of mRNAs was calculated by the ΔΔCt method and presented relative to that of IMQ control mice.

[5] = tested on: differentiated Th17 cells; assay: Th17 differentiation of naïve CD4+CD62L+ T cells; type: cell-based, mice; details: 40 μM, 72 h
Experimental: as §1
The mRNAs and cytokines were quantified as follows. A first strand of cDNA was synthesized from total RNA by using the TaqMan reverse transcription kit. The cDNA was amplified in the real-time PCR system ViiA7 using TaqMan gene expression assays of OX40 (Mm01261022_m1), Stat3 (Mm01219775_m1) and the endogenous control Gapdh (Mm99999915_g1). Kits, probes and reagents were from Applied Biosystems. The relative expression of mRNAs was calculated by ΔΔCt method. For cytokines quantification in serum and cell culture supernatants, ELISA kits of IL-17a, IL-6, TNF-α (Invitrogen) were used following the manufacturer's instructions.
Flow cytometry analysis was conducted using CD4^+ T cells cultured under Th17 cell-inducing conditions or CD4^+ T cells derived from CNS, which were fixed and stained with Per-CP-Cy5.5-conjugated anti-CD4 antibodies and PE-conjugated anti-OX40 antibodies (Biolegend). Analysis was carried out using Flowsight (Amnis).
The anti-inflammatory activity of the Arid5a inhibitor POE was tested in vitro by measuring secretion of pro-inflammatory cytokines by macrophages and differentiated Th17 cells. Briefly, peritoneal macrophages were stimulated with LPS (0.5 μg/mL) for 24 h in presence or absence of POE (40 μM). […] The percentage of CD4^+OX40^+ T cells in the polarized Th17 cells was determined using flow cytometry; the results are shown in FIG. 3D. Stat3 mRNA expression in the polarized Th17 cells was quantified by real-time PCR and normalized to Gapdh mRNA; the results are shown relative to those of untreated Th17 cells in FIG. 3E.

[6] = topical ointment, day 8, FIG. 8B

## O=C(CSc1nnc(-c2ccncc2)o1)c1ccccc1 [POE, 1-Phenyl-2-(5-pyridin-4-yl-[1,3,4]oxadiazol-2-ylsulfanyl)-ethanone]
[1]
  Physical binding of Arid5a to OX40 ADE-like stem loop: inhibited the physical binding of Arid5a to OX40 ADE-like stem loop in a concentration-dependent manner
[2]; 0.25 mg i.p. on days 0, 3, 6, 9, 12, 15, 18, vs corn oil, FIG. 7A
  CIA clinical scores: comparably reduced CIA clinical scores
[2]; 0.25 mg i.p., day 45, FIG. 7B
  Serum level of IL-6: reduced serum levels of IL-6
[2]; 0.25 mg i.p., day 45, flow cytometry, FIG. 7C
  Frequency of CD4+IL-17+ cells in the secondary lymphoid organs: reduced the frequency of CD4^+IL-17^+ cells
[3]; FIG. 3A
  Level of IL-6 in cell culture supernatant: reduces the level of IL-6
[3]; FIG. 3B
  Level of TNF-α in cell culture supernatant: does not affect the level of TNF-α
[4]; topical ointment 40 mg/cm^2 day 0 to 8, vs Vaseline, FIG. 8A
  Clinical scores (erythema and thickness of the right ear): comparably reduced clinical scores
[4]; [6]
  Il6 mRNA expression in whole biopsies of the right ear: suppressed mRNA expression
  Il17a mRNA expression in whole biopsies of the right ear: suppressed mRNA expression
[5]; compared to untreated Th17 cells, FIG. 3C
  Level of IL-17 in cell culture supernatant of polarized Th17 cells: reduces the level of IL-17
[5]; flow cytometry, FIG. 3D
  Frequency of CD4+OX40+ T cells in polarized Th17 cells: reduces the frequency of CD4^+OX40^+ T cells
[5]; real-time PCR normalized to Gapdh, FIG. 3E
  Expression of Stat3 mRNA in polarized Th17 cells: reduces the expression of Stat3 mRNA
